Patent US20200101176A1, “Small Highly Uniform Nanomedicine Compositions for Therapeutic, Imaging and Theranostic Applications” (THE REGENTS OF THE UNIVERSITY OF MICHIGAN, priority 2018, published 2020)

Tested on: myocytes
Assay: PDT of heart tissue, cell death tracked by PI fluorescence
Conditions: in vivo
Excerpt: PI fluorescence is only from myocytes.
FIG. 25 are images showing an embodiment of a non-targeted PDT with Ce6, in accordance with the present inventions.
Turning to FIG. 15, there is shown that PI (a nuclear stain for dead cells) is only present in myocytes (3 different magnified areas).
Turning to FIG. 16, there is shown similar tissue sampling test as FIG. 15, but using non-targeted PDT.

With chlorin e6 [Ce6] the “damage to vasculature / non-target cells after PDT (PI fluorescence)” value was “vasculature damage” and the “damage to vasculature / non-target cells after PDT (PI fluorescence)” value (listed as untargeted Ce6) was “kills everything”.
